US20230031406A1, “COMPOUNDS AND COMPOSITIONS FOR TREATING CONDITIONS ASSOCIATED WITH NLRP ACTIVITY” (Novartis AG, priority 2018, published 2023)

system: PMA-differentiated THP-1 cells; assay: IL-1β production in PMA-differentiated THP-1 cells stimulated with gramicidin (hTHP-1 assay containing 2% fetal bovine serum; Procedures 1 and 2); type: cell-based, human; conditions: Homo sapiens, THP-1, Table B1; 2% fetal bovine serum; class symbols; read-out: Average IC50 of compounds in hTHP-1 assay: hTHP-1 IC50
Outline: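 Human monocytic THP-1 cells, matured overnight with PMA at 20 ng/ml, are seeded in low-serum (2% FBS) RPMI. Test compounds, at final concentrations from 100 down to 0.0017 μM, precede gramicidin (5 μM, 2 h) by one hour. Released IL-1β is then determined by HTRF.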

Row | Compound | IC50 [nM]
1 | C[C@@H]1CCc2c1nc1c(c2NC(=O)N=[S@@](N)(=O)c2cnc(C(C)(C)O)s2)CCC1 [Compound 162bb, (R,R)-2-(2-hydroxypropan-2-yl)-N′-((3-methyl-1,2,3,5,6,7-hexahydrodicyclo-penta[b,e]pyridin-8-yl)carbamoyl)thiazole-5-sulfonimidamide] | 40 to 200
2 | CC(C)c1ncc(F)c(C(C)C)c1NC(=O)N=S(N)(=O)c1nc(C(C)(C)O)cs1 (stereo not drawn) [Compound 163, N′-((5-fluoro-2,4-diisopropylpyridin-3-yl)carbamoyl)-4-(2-hydroxypropan-2-yl)thiazole-2-sulfonimidamide] | 200 to 1000
3 | CC(C)c1ncc(F)c(C(C)C)c1NC(=O)N=S(N)(=O)c1cnc(C(C)(C)O)s1 (stereo not drawn) [Compound 164, N′-((5-fluoro-2,4-diisopropylpyridin-3-yl)carbamoyl)-2-(2-hydroxypropan-2-yl)thiazole-5-sulfonimidamide] | 1000 to 5000
4 | Cn1nc(C(C)(C)O)cc1S(N)(=O)=NC(=O)Nc1c2c(nc3c1CCC3)CCC2 (stereo not drawn) [Compound 166, N′-((1,2,3,5,6,7-hexahydrodicyclopenta[b,e]pyridin-8-yl)carbamoyl)-3-(2-hydroxypropan-2-yl)-1-methyl-1H-pyrazole-5-sulfonimidamide] | 5000 to 30000
5 | CC(C)(O)c1cnc(S(N)(=O)=NC(=O)Nc2c3c(nc4c2CCC4)CCC3)s1 (stereo not drawn) [Compound 167] | 1000 to 5000
6 | COCc1nc(C(C)(C)O)sc1S(N)(=O)=NC(=O)Nc1c2c(nc3c1CCC3(C)C)CCC2 (stereo not drawn) [Compound 170, N′-((3,3-dimethyl-1,2,3,5,6,7-hexahydrodicyclopenta[b,e]pyridin-8-yl)carbamoyl)-2-(2-hydroxypropan-2-yl)-4-(methoxymethyl)thiazole-5-sulfonimidamide] | 1000 to 5000
7 | CC1CCc2c1nc1c(c2NC(=O)N=S(N)(=O)c2cnn(C(C)C)c2)CCC1 (stereo not drawn) [Compound 171, 1-isopropyl-N′-((3-methyl-1,2,3,5,6,7-hexahydrodicyclopenta[b,e]pyridin-8-yl)carbamoyl)-1H-pyrazole-4-sulfonimidamide] | 1000 to 5000
8 | CC(C)n1ccc(S(N)(=O)=NC(=O)Nc2c3c(nc4c2CCC42CC2)CCC3)n1 (stereo not drawn) [Compound 172, 1-isopropyl-N′-((1′,5′,6′,7′-tetrahydro-2′H-spiro[cyclopropane-1,3′-dicyclopenta[b,e]pyridin]-8′-yl)carbamoyl)-1H-pyrazole-3-sulfonimidamide] | 200 to 1000
9 | CC(C)c1csc(S(N)(=O)=NC(=O)Nc2c3c(nc4c2CCC4)CCC3)c1 (stereo not drawn) [Compound 173, N′-((1,2,3,5,6,7-hexahydrodicyclopenta[b,e]pyridin-8-yl)carbamoyl)-4-isopropylthiophene-2-sulfonimidamide] | 200 to 1000
10 | Cc1c(C2CC2)nc2c(c1NC(=O)N=S(N)(=O)c1sc(C(C)(C)O)cc1F)CCC2 (stereo not drawn) [Compound 174, N′-((2-cyclopropyl-3-methyl-6,7-dihydro-5H-cyclopenta[b]pyridin-4-yl)carbamoyl)-3-fluoro-5-(2-hydroxypropan-2-yl)thiophene-2-sulfonimidamide] | 200 to 1000
11 | Cc1c(C2CC2)nc2c(c1NC(=O)N=S(N)(=O)c1cc(C(C)(C)O)cs1)CCC2 (stereo not drawn) [Compound 175, N′-((2-cyclopropyl-3-methyl-6,7-dihydro-5H-cyclopenta[b]pyridin-4-yl)carbamoyl)-4-(2-hydroxypropan-2-yl)thiophene-2-sulfonimidamide] | 200 to 1000
12 | CC(C)(O)c1csc(S(N)(=O)=NC(=O)Nc2cc(C3CC3)nc3c2CCC3)c1 (stereo not drawn) [Compound 176, N′-((2-cyclopropyl-6,7-dihydro-5H-cyclopenta[b]pyridin-4-yl)carbamoyl)-4-(2-hydroxypropan-2-yl)thiophene-2-sulfonimidamide] | 5000 to 30000
13 | CC(C)(O)c1sc(S(N)(=O)=NC(=O)Nc2c3c(nc4c2CCC4)CCC3)cc1F (stereo not drawn) [Compound 177, 4-fluoro-N′-((1,2,3,5,6,7-hexahydrodicyclopenta[b,e]pyridin-8-yl)carbamoyl)-5-(2-hydroxypropan-2-yl)thiophene-2-sulfonimidamide] | 5000 to 30000
14 | CC(C)(O)c1ncc(S(N)(=O)=NC(=O)Nc2c3c(nc4c2CCC4O)CCC3)s1 (stereo not drawn) [Compound 178, N′-((3-hydroxy-1,2,3,5,6,7-hexahydrodicyclopenta[b,e]pyridin-8-yl)carbamoyl)-2-(2-hydroxypropan-2-yl)thiazole-5-sulfonimidamide] | 5000 to 30000
15 | CC(C)c1nc(C(F)(F)F)nc(C(C)C)c1NC(=O)N=S(N)(=O)c1sc(C(C)(C)O)nc1CO (stereo not drawn) [Compound 179, N′-((4,6-diisopropyl-2-(trifluoromethyl)pyrimidin-5-yl)carbamoyl)-4-(hydroxymethyl)-2-(2-hydroxypropan-2-yl)thiazole-5-sulfonimidamide] | 1000 to 5000
16 | NS(=O)(=NC(=O)Nc1c2c(nc3c1CCC31CC1)CCC2)c1ccn(C(F)F)n1 (stereo not drawn) [Compound 180, 1-(difluoromethyl)-N′-((1′,5′,6′,7′-tetrahydro-2′H-spiro[cyclopropane-1,3′-dicyclopenta[b,e]pyridin]-8′-yl)carbamoyl)-1H-pyrazole-3-sulfonimidamide] | 1000 to 5000
17 | CCc1c(C2CC2)nc2c(c1NC(=O)N=S(N)(=O)c1cc(C(C)(C)O)cs1)CCC2 (stereo not drawn) [Compound 181, N′-((2-cyclopropyl-3-ethyl-6,7-dihydro-5H-cyclopenta[b]pyridin-4-yl)carbamoyl)-4-(2-hydroxypropan-2-yl)thiophene-2-sulfonimidamide] | 200 to 1000

same assay, conditions: Homo sapiens, THP-1, Table B1; 2% fetal bovine serum; numeric bounds; read-out: Average IC50 of compounds in hTHP-1 assay: hTHP-1 IC50

Row | Compound | IC50 [nM]
18 | CC(C)c1cc(NC(=O)N=S(N)(=O)c2cc(C(C)(C)O)cs2)c2c(n1)CCC2 (stereo not drawn) [Compound 182, 4-(2-hydroxypropan-2-yl)-N′-((2-isopropyl-6,7-dihydro-5H-cyclopenta[b]pyridin-4-yl)carbamoyl)thiophene-2-sulfonimidamide] | > 14000
19 | Cc1cc(C2CC2)nc(NC(=O)N=S(N)(=O)c2ncc(C(C)(C)O)s2)n1 (stereo not drawn) [Compound 185, N′-((4-cyclopropyl-6-methylpyrimidin-2-yl)carbamoyl)-5-(2-hydroxypropan-2-yl)thiazole-2-sulfonimidamide] | > 30000

same assay, conditions: Homo sapiens, THP-1, Table B2; 2% fetal bovine serum; numeric bounds; read-out: hTHP-1 IC50

Row | Compound | IC50 [nM]
20 | Cc1cc(C2CC2)nc(NC(=O)N=S(N)(=O)c2ncc(C(C)(C)O)s2)n1 (stereo not drawn) [Compound 185, N′-((4-cyclopropyl-6-methylpyrimidin-2-yl)carbamoyl)-5-(2-hydroxypropan-2-yl)thiazole-2-sulfonimidamide] | > 30000

same assay, conditions: Table B1; 2% fetal bovine serum; class symbols; read-out: Average IC50 of compounds in hTHP-1 assay: hTHP-1 IC50

Row | Compound | IC50 [nM]
21 | CC(C)c1ncc(F)c(C(C)C)c1NC(=O)N=S(N)(=O)c1ncc(C(C)(C)O)s1 (stereo not drawn) [Compound 165, N′-((5-fluoro-2,4-diisopropylpyridin-3-yl)carbamoyl)-5-(2-hydroxypropan-2-yl)thiazole-2-sulfonimidamide] | 1000 to 5000
22 | CC(C)c1ncc(F)c(C(C)C)c1NC(=O)N=S(N)(=O)c1ncc(C(C)(C)O)s1 [Compound 165a, (R)- and (S)-N′-((5-fluoro-2,4-diisopropylpyridin-3-yl)carbamoyl)-5-(2-hydroxypropan-2-yl)thiazole-2-sulfonimidamide] | 200 to 1000
23 | CC1CCc2c1nc1c(c2NC(=O)N=S(N)(=O)c2sc(C(C)(C)O)nc2CO)CCC1 (stereo not drawn) [Compound 168, 4-(hydroxymethyl)-2-(2-hydroxypropan-2-yl)-N′-((3-methyl-1,2,3,5,6,7-hexahydrodicyclopenta[b,e]pyridin-8-yl)carbamoyl)thiazole-5-sulfonimidamide] | 200 to 1000
24 | CC(C)(O)c1ncc(S(N)(=O)=NC(=O)Nc2c3c(nc4c2CCC4F)CCC3)s1 (stereo not drawn) [Compound 183, N′-((3-fluoro-1,2,3,5,6,7-hexahydrodicyclopenta[b,e]pyridin-8-yl)carbamoyl)-2-(2-hydroxypropan-2-yl)thiazole-5-sulfonimidamide] | 5000 to 30000
